The values that follow are results of earlier work, collected in US20070049498A1, “Agricultural compositions which enhance performance of herbicides” (priority 2005, published 2007).

For the series the following is noted: glyphosate in acid form.

In the case of `O=C(O)CNCP(=O)(O)O` [glyphosate, N-phosphonomethylglycine], the water solubility result is reported as “about 1.2%”.
